Laboratory results as given in PubChem BioAssay AID2060333 (Molecular Pharmacology Branch, DTP, NCI, 2025).

Tested on: 845751-090-R-J2-PDC tumor spheroid viability
Experiment: Anticancer human tumor 845751-090-R-J2-PDC patient-derived head and neck squamous carcinoma cell line growth inhibition [IpAb]
Settings: spheroids with HUVEC and MSC; for IC50: curve of first compound; for viability, T/C: stronger effect = lower value
Description: Combinatorial screen of targeted agents with ipatasertib and abemaciclib in multi-cell type tumor spheroids
A high-throughput screen of multi-cell type tumor spheroids was designed to identify active combinations of targeted small molecules and ipatasertib or abemaciclib. Complex spheroids include a stromal component modeled by human endothelial cells (HUVEC) and fibroblasts modeled by human mesenchymal stem cells (MSCs). The concentration ranges selected for each drug and investigational agent were based upon clinically achievable concentrations if the clinical Cmax of the agent was known.
Compounds. The drugs and investigational agents: ipatasertib (NSC767898), abemaciclib(NSC768073), selumetinib (NSC741078), trametinib (758246), adavosertib (NSC754352), everolimus (NSC733504), sapanisertib (NSC764658), vemurafenib (NSC761431), venetoclax (NSC766270), copanlisib (NSC809693), apelisib (NSC765974), palbociblib (NSC758247), vemurafenib (NSC761431), dabrafenib (NSC764134), ravoxertinib (NSC781343), BMS-387032 (NSC767048), sotorasib (NSC818433), talazoparib (NSC767125) and afursertib (NSC778305), were obtained from the National Cancer Institute (NCI) Developmental Therapeutics Program Chemical Repository. The FDA-approved anticancer drug set is available from the NCI Developmental Therapeutics Program. […] The stock solutions were prepared in dimethyl sulfoxide (DMSO, Sigma-Aldrich, St. Louis, MO, cat. D2650) at 800-fold the tested concentration and stored at -70 degrees C prior to their use. All drugs and investigational agents were tested over a range starting from a high concentration at or near the clinical Cmax and decreasing in half-log increments. If the clinical Cmax for an agent had not been determined, the highest concentration tested was 10 microM.
NCI60 Cell Culture. NCI60 cell lines were obtained from the NCI Developmental Therapeutics Program Tumor Repository. For each lot of cells, the Repository performed Applied Biosystems AmpFLSTR Identifiler testing with PCR amplification to confirm consistency with the published Identifier STR profile for each cell line. Cells were kept in continuous culture for no more than 20 passages. The optimal seeding densities for each of the cell lines at each time point assessed were determined prior to performing the concentration response studies. Briefly, the NCI60 human tumor lines were grown as monolayers in RPMI 1640 medium supplemented with 10% FBS and 2 mmol/L L-glutamine.
An additional 9 lines were from the NCI60 cell line panel including MDA-MB-231 breast carcinoma, MDA-MB-468 breast carcinoma, MCF7 breast carcinoma, Hs578T breast carcinoma, MALME-3M melanoma, SK-MEL-2 melanoma, SK-OV-3 ovarian carcinoma, DU-145 prostate carcinoma, PC-3 prostate carcinoma, all cell lines along with major genetic alterations are listed on Table 2. Pooled donor human umbilical vein endothelial cells (HUVEC, Lonza, cat. CC-2519) and human mesenchymal stem cells (hMSC, Lonza, cat. PT-2501) were purchased from Lonza (Walkersville, MD).
PDMR cell lines were grown in complete medium (DC medium): Dulbecco's modified Eagle's medium (DMEM)/F12 supplemented with 5% fetal bovine serum (FBS), 2 mM L-glutamine, 100 U/mL penicillin and 100 µg/ml streptomycin, 0.4 µg/ml hydrocortisone, 10 ng/ml epidermal growth factor (EGF) recombinant human protein, 24 µg/mL adenine, and 0.1 mg/mL primocin. During culture from frozen stock vials, PDMR cells were cultured in the same medium containing 10 µM Y-27632 (see Table 3). The PDCs were cultured in complete DMEM/F12 media without 10 microM Y-27632 dihydrochloride for at least two passages prior to the screen. The pooled donor HUVEC and hMSC were cultured in endothelial cell growth medium 2 (PromoCell, Heidelberg, Germany, cat. C-22011) and mesenchymal stem cell growth medium 2 (PromoCell, cat. C-28009), respectively. For all experiments, HUVEC and hMSC were used at passages </=5.
[…]
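Note: spheroids exposed to compounds for 7 days before readout.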
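Throughout, for viability, T/C: CTG3D luminescence normalised so that 100% = DMSO vehicle control.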

C=CCn1c(=O)c2cnc(Nc3ccc(N4CCN(C)CC4)cc3)nc2n1-c1cccc(C(C)(C)O)n1 + CC(C)NCC(C(=O)N1CCN(c2ncnc3c2C(C)CC3O)CC1)c1ccc(Cl)cc1
IC50 (second compound 0.1 µM): 54.6 nM | IC50 (second compound 0.316 µM): < 31.6 nM | IC50 (second compound 1 µM): < 31.6 nM | IC50 (second compound 3.16 µM): < 31.6 nM | IC50 (second compound 10 µM): < 31.6 nM | viability, T/C (second compound 0.1 µM, first compound 0.0316 µM): 62.1% | viability, T/C (second compound 0.1 µM, first compound 0.1 µM): 38.2% | viability, T/C (second compound 0.1 µM, first compound 0.316 µM): 22.2% | viability, T/C (second compound 0.1 µM, first compound 1 µM): 21.7% | viability, T/C (second compound 0.1 µM, first compound 3.16 µM): 35.8% | viability, T/C (second compound 0.1 µM, first compound 10 µM): 56.6% | viability, T/C (second compound 0.316 µM, first compound 0.0316 µM): 34% | viability, T/C (second compound 0.316 µM, first compound 0.1 µM): 22.1% | viability, T/C (second compound 0.316 µM, first compound 0.316 µM): 19.9% | viability, T/C (second compound 0.316 µM, first compound 1 µM): 16.9% | viability, T/C (second compound 0.316 µM, first compound 3.16 µM): 22.1% | viability, T/C (second compound 0.316 µM, first compound 10 µM): 28.4% | viability, T/C (second compound 1 µM, first compound 0.0316 µM): 24.5% | viability, T/C (second compound 1 µM, first compound 0.1 µM): 15% | viability, T/C (second compound 1 µM, first compound 0.316 µM): 11.1% | viability, T/C (second compound 1 µM, first compound 1 µM): 13.7% | viability, T/C (second compound 1 µM, first compound 3.16 µM): 22.9% | viability, T/C (second compound 1 µM, first compound 10 µM): 18.9% | viability, T/C (second compound 3.16 µM, first compound 0.0316 µM): 19.2% | viability, T/C (second compound 3.16 µM, first compound 0.1 µM): 8.76% | viability, T/C (second compound 3.16 µM, first compound 0.316 µM): 7.09% | viability, T/C (second compound 3.16 µM, first compound 1 µM): 32.9% | viability, T/C (second compound 3.16 µM, first compound 3.16 µM): 19.9% | viability, T/C (second compound 3.16 µM, first compound 10 µM): 11.9% | viability, T/C (second compound 10 µM, first compound 0.0316 µM): 6.27% | viability, T/C (second compound 10 µM, first compound 0.1 µM): 4.29% | viability, T/C (second compound 10 µM, first compound 0.316 µM): 4.36% | viability, T/C (second compound 10 µM, first compound 1 µM): 14% | viability, T/C (second compound 10 µM, first compound 3.16 µM): 13.9% | viability, T/C (second compound 10 µM, first compound 10 µM): 8.16%

Cn1cnc2c(F)c(Nc3ccc(Br)cc3Cl)c(C(=O)NOCCO)cc21 + CC(C)NCC(C(=O)N1CCN(c2ncnc3c2C(C)CC3O)CC1)c1ccc(Cl)cc1
IC50 (second compound 0.1 µM): < 9.49 nM | IC50 (second compound 0.316 µM): < 9.49 nM | IC50 (second compound 1 µM): < 9.49 nM | IC50 (second compound 3.16 µM): < 9.49 nM | IC50 (second compound 10 µM): < 9.49 nM | viability, T/C (second compound 0.1 µM, first compound 0.00949 µM): 40.2% | viability, T/C (second compound 0.1 µM, first compound 0.03 µM): 29.9% | viability, T/C (second compound 0.1 µM, first compound 0.0949 µM): 23.6% | viability, T/C (second compound 0.1 µM, first compound 0.3 µM): 20.6% | viability, T/C (second compound 0.1 µM, first compound 0.949 µM): 16.6% | viability, T/C (second compound 0.1 µM, first compound 3 µM): 12.3% | viability, T/C (second compound 0.316 µM, first compound 0.00949 µM): 17.2% | viability, T/C (second compound 0.316 µM, first compound 0.03 µM): 15.4% | viability, T/C (second compound 0.316 µM, first compound 0.0949 µM): 11.9% | viability, T/C (second compound 0.316 µM, first compound 0.3 µM): 11.2% | viability, T/C (second compound 0.316 µM, first compound 0.949 µM): 7.05% | viability, T/C (second compound 0.316 µM, first compound 3 µM): 5% | viability, T/C (second compound 1 µM, first compound 0.00949 µM): 14.4% | viability, T/C (second compound 1 µM, first compound 0.03 µM): 10.5% | viability, T/C (second compound 1 µM, first compound 0.0949 µM): 6.55% | viability, T/C (second compound 1 µM, first compound 0.3 µM): 4.68% | viability, T/C (second compound 1 µM, first compound 0.949 µM): 4.96% | viability, T/C (second compound 1 µM, first compound 3 µM): 2.43% | viability, T/C (second compound 3.16 µM, first compound 0.00949 µM): 11.3% | viability, T/C (second compound 3.16 µM, first compound 0.03 µM): 5.57% | viability, T/C (second compound 3.16 µM, first compound 0.0949 µM): 3.02% | viability, T/C (second compound 3.16 µM, first compound 0.3 µM): 3.4% | viability, T/C (second compound 3.16 µM, first compound 0.949 µM): 1.75% | viability, T/C (second compound 3.16 µM, first compound 3 µM): 1.07% | viability, T/C (second compound 10 µM, first compound 0.00949 µM): 2.67% | viability, T/C (second compound 10 µM, first compound 0.03 µM): 1.92% | viability, T/C (second compound 10 µM, first compound 0.0949 µM): 1.37% | viability, T/C (second compound 10 µM, first compound 0.3 µM): 1.13% | viability, T/C (second compound 10 µM, first compound 0.949 µM): 2.24% | viability, T/C (second compound 10 µM, first compound 3 µM): 0.56%
